One data set concerns Trypanosoma brucei. The data set can be described thus: Trypanocidal activity against bloodstream forms of Trypanosoma brucei 221 assessed as growth inhibition after 48 hrs by resazurin assay. The data set is classed as functional, organism-based. The note with it: Trypanosoma brucei, 221, 48 h. For orientation: Resazurin is reduced to fluorescent resorufin, in cell work by metabolically active cells.

The next data set concerns L6. Put plainly: Cytotoxicity against rat L6 cells after 6 days by resazurin assay. The data set is classed as cell-based. To be noted: L6, 144 h.
The nature of data set [1]: Selectivity index, ratio of IC50 for rat L6 cells to IC50 for bloodstream forms of Trypanosoma brucei 221. The data set is classed as toxicity, cell-based. To be noted: L6 cells versus bloodstream forms of Trypanosoma brucei 221, read-out: Ratio IC50.
A further data set addresses Acetylcholinesterase (Homo sapiens, UniProt P22303). The data set can be described thus: Inhibition of human recombinant AChE using acetylthiocholine iodide as substrate preincubated for 20 mins by Ellman method.
Data set [2] can be described thus: Effective permeability of the compound by PAMPA assay. Format: ADME. To be noted: read-out: Peff. (In general: The PAMPA barrier holds no transporters, so it reflects passive diffusion.)
The next data set concerns Plasmodium falciparum. Put plainly: Antiplamodial activity against chloroquine-resistant bloodstream forms of Plasmodium falciparum K1 infected in human A+ erythrocytes assessed as growth inhibition after 48 hrs by spectrophotometry. Format: functional, organism-based. To be noted: K1, 48 h.

The structures appear in SMILES notation.

The text below walks through data of ChEMBL document CHEMBL3351941, “Synthesis and antiprotozoal activity of oligomethylene- and p-phenylene-bis(methylene)-linked bis(+)-huprines” (Bioorg Med Chem Lett, 2014).

Acetylcholinesterase, sequence (P22303 whole entry, the tested form may be a part): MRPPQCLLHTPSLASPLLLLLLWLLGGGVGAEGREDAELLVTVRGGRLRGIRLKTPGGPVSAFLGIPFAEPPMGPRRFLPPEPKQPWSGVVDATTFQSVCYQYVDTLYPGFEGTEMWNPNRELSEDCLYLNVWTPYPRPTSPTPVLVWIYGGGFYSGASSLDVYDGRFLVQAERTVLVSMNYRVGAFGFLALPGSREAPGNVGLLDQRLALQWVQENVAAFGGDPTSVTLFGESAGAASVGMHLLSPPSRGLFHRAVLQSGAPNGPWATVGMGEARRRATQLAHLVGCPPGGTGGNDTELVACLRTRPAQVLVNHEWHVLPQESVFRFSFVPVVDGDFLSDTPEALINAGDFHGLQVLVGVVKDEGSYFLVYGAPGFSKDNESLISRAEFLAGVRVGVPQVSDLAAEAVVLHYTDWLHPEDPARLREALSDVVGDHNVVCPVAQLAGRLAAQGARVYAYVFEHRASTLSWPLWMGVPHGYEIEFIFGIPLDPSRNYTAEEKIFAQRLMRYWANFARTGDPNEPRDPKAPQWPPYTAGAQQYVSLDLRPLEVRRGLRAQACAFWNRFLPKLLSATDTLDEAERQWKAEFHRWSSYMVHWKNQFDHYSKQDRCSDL

Broadly, the IC50 is the midpoint of a concentration-inhibition curve. The IC90 is the concentration at which the effect reaches the 90% level. Take `CC1=C[C@H]2Cc3nc4cc(Cl)ccc4c(NCCCCCCCCCCCCNc4c5c(nc6cc(Cl)ccc46)C[C@@H]4C=C(C)C[C@H]5C4)c3[C@@H](C1)C2`: the IC50 in the data set with Trypanosoma brucei was 760 nM; with L6, 28500 nM; at Acetylcholinesterase it was 431 nM; in the data set on Plasmodium falciparum, over 6000 nM. The IC90 with Trypanosoma brucei stood at 990 nM. In data set [1], the selectivity ratio was found to be 37.5. Further, the Papp in data set [2] was found to be 17.4 ×10⁻⁶ cm/s.

As to `CC1=CC2Cc3nc4cc(Cl)ccc4c(N)c3C(C1)C2` (stereo unspecified) [HUPRINE Y], the IC50 in the data set with Plasmodium falciparum was over 10000 nM.

On to `CC1=C[C@H]2Cc3nc4cc(Cl)ccc4c(NCCCCCCCCNc4c5c(nc6cc(Cl)ccc46)C[C@@H]4C=C(C)C[C@H]5C4)c3[C@@H](C1)C2`, for which the IC50 is 520 nM with Trypanosoma brucei, 4920 nM in the data set with L6, 72.5 nM at Acetylcholinesterase and over 6000 nM in the data set with Plasmodium falciparum. Moreover, in the data set with Trypanosoma brucei, the IC90 worked out at 740 nM. Further, the selectivity ratio in data set [1] came to 9.5. Also, the Papp in data set [2] is 13.9 ×10⁻⁶ cm/s.

Take `CC1=C[C@H]2Cc3nc4cc(Cl)ccc4c(NCc4ccc(CNc5c6c(nc7cc(Cl)ccc57)C[C@@H]5C=C(C)C[C@H]6C5)cc4)c3[C@@H](C1)C2`: the IC50 in the data set on Trypanosoma brucei is 570 nM; in the data set on L6, 16100 nM; in the data set with Plasmodium falciparum it was over 6000 nM. The IC90 with Trypanosoma brucei was found to be 750 nM. In addition, the selectivity ratio in data set [1] is 28.2. The Papp in data set [2] was 8.3 ×10⁻⁶ cm/s.

For `CC1=C[C@H]2Cc3nc4cc(Cl)ccc4c(NCCCCCCNc4c5c(nc6cc(Cl)ccc46)C[C@@H]4C=C(C)C[C@H]5C4)c3[C@@H](C1)C2`, the IC50 with Trypanosoma brucei is 890 nM; with L6 it was 1610 nM; on Acetylcholinesterase it was 192 nM; in the data set with Plasmodium falciparum, over 6000 nM. The IC90 in the data set with Trypanosoma brucei turned out to be 1090 nM. In addition, the selectivity ratio in data set [1] is 1.8. Also, the Papp in data set [2] was 11.1 ×10⁻⁶ cm/s.

On to `CC1=C[C@H]2Cc3nc4cc(Cl)ccc4c(NCCCCCCCCCCNc4c5c(nc6cc(Cl)ccc46)C[C@@H]4C=C(C)C[C@H]5C4)c3[C@@H](C1)C2`, for which the IC50 with Trypanosoma brucei is 500 nM; with L6, 7710 nM; at Acetylcholinesterase it was 17.5 nM; with Plasmodium falciparum it was over 6000 nM. Besides, in the data set with Trypanosoma brucei, the IC90 was found to be 730 nM. For the same compound, the selectivity ratio in data set [1] was 15.4. For the same compound, in data set [2], the Papp was 8.7 ×10⁻⁶ cm/s.

As for `C[C@@H]1CC[C@H]2[C@@H](C)C(=O)O[C@@H]3O[C@@]4(C)CC[C@@H]1[C@]32OO4` [ARTEMISININ], the half-inhibitory concentration (IC50) in the data set with Plasmodium falciparum was 91 nM.
